Values after ≈ are worked out from the molar mass of the structure shown.
How the values were obtained:
[1] = Cytotoxicity against human PLC/PRF/5 cells after 4 days; type: functional; settings: PLC-PRF-5, 96 h, read-out: ED50 (the source's name)
KB = experiment: Cytotoxicity against human KB cells after 4 days; type: functional; settings: 96 h, read-out: ED50 (the source's name)

CC(C)[C@@H](C)/C=C/[C@@H](C)[C@H]1CC[C@@H]2[C@]1(C)CC[C@H]1[C@]23C=C[C@]2(C[C@@H](O)CC[C@]12C)OO3 [ERGOSTEROL PEROXIDE]
EC50 [1]: 11 µg/mL (≈ 25.6 µM)
EC50 (KB): 9.79 µg/mL (≈ 22.8 µM)

C/C(C=O)=C\CC[C@@H](C)[C@H]1CC[C@@]2(C)C3=C(C(=O)C[C@]12C)[C@@]1(C)CC[C@H](O)C(C)(C)[C@@H]1CC3 [GANODERIC ALDEHYDE A]
EC50 [1]: 2.54 µg/mL (≈ 5.59 µM)
EC50 (KB): 1.25 µg/mL (≈ 2.75 µM)

C/C(=C\CC[C@@H](C)[C@H]1CC[C@@]2(C)C3=C(C(=O)C[C@]12C)[C@@]1(C)CC[C@H](O)C(C)(C)[C@@H]1CC3)CO [2H-GANODERIC ALDEHYDE A]
EC50 [1]: 10.7 µg/mL (≈ 23.5 µM)
EC50 (KB): 8.27 µg/mL (≈ 18.1 µM)

— ChEMBL document CHEMBL1158968, “Novel cytotoxic principles of Formosan Ganoderma lucidum” (1991)
